Test results: patent US10112978B2, “Peptide and use thereof” (OSAKA UNIVERSITY, priority 2014, dated 2018)
Ends that are not written are not given here.

What was measured:
[1] = tested on: Human hair follicle dermal papilla cells; assay: Production of growth factors (KGF, HGF, VEGF) by hair follicle dermal papilla cells (ELISA); assay type: cell-based; settings: 5 days
Description: Human hair follicle dermal papilla cells in DMEM medium containing 10% FBS were seeded at 3×10^4 cells/well on a 24-well plate and cultured in a CO2 incubator overnight. On the following day, the medium was removed, test peptide solutions in DMEM medium containing 1% FBS were added to the plate, and the cells were cultured in a CO2 incubator for 5 days. The culture supernatant was harvested, and the KGF, HGF and VEGF concentrations in the culture supernatant were measured by ELISA.
In this experiment, OSK-1 and AAP-11 were used as the test peptides, and the concentrations of KGF, HGF and VEGF were measured in the same manner as in Example 9.

THP-1 cells = assay: CD86 and CD54 expression in THP-1 cells (flow cytometry, RFI); assay type: cell-based, human; settings: overnight culture, relative fluorescence intensity
Description: THP-1 cells were seeded at a density of 2.0×10^5 cells/mL in 50 mL of RPMI1640 medium containing 10% FBS and 0.05 mM mercaptoethanol in a 75-cm^2 flask, and precultured for 48 hours.
The precultured THP-1 cells were harvested by centrifugation and suspended at 2.0×10^6 cells/mL in RPMI1640 medium containing 10% FBS and 0.05 mM mercaptoethanol, and the cell suspension was added to a 24-well plate at 500 μL/well. Test peptides were separately dissolved in the same medium as above, and 500 μL of each of the solutions was added to separate wells containing the cell suspension.
After overnight culture, the cells were harvested by centrifugation and washed twice with PBS containing 0.1% BSA (FACS buffer). The cells were then dispersed in 600 μL of FACS buffer containing 0.01% human γ-globulin solution (Sigma, G2388), and incubated at 4° C. for 10 minutes for blocking of Fc receptors.
After that, the cell suspension was divided into three 180-μL aliquots in 1.5-mL tubes, the tubes were centrifuged, and the cell pellets were prepared for the reaction with antibodies. To the cell pellets, FITC-labeled antibody solutions separately diluted to appropriate concentrations in FACS buffer were added in a volume of 50 μL, and incubation was performed at 4° C. for 30 minutes. The antibodies used were CD86 antibody (Pharmingen; Cat#555657), CD54 antibody (Dako; Cat# F7143) and isotype control (Mouse IgG) antibody (Dako; Cat#X0927). After the 30-minute incubation, the cells were harvested by centrifugation and washed twice with FACS buffer. The cells harvested by centrifugation were dispersed in 200 μL of FACS buffer containing 0.625 μg/mL propidium iodide, and the expression levels of the cell surface antigens on 1×10^4 viable cells were measured by flow cytometry. Forward and side scatter gating was not used for the analysis, and the relative fluorescence intensity (RFI) was calculated from the measured mean fluorescence intensities (MFI) by the following formula. […]
When the viability of the non-treated control cells (vehicle treatment cells) was 90% or more, the test was considered valid. In the case where the cell viability at a particular sample concentration used in the test was lower than 50%, the data of the CD54 level at the concentration was excluded from the evaluation.

Substance	production of the growth factors (KGF, HGF and VEGF concentrations in the culture supernatant) [1]	expression of CD54 (THP-1 cells)	expression of CD86 (THP-1 cells)
ELKLIFLHRLKRLR [AAP-3, C-terminal KRLKRK of OSK-1 deleted]	less effective than OSK-1	considerably less active	considerably less active
ELKLIFLHRLKRLRKR [AAP-2, C-terminal LKRK of OSK-1 deleted]	less effective than OSK-1	considerably less active	considerably less active
FLHRLKRLRKRL [AAP-11]	promoted the production of the indicated growth factors in a concentration dependent manner	no considerable reduction in the activity was observed	no considerable reduction in the activity was observed
HRLKRLRKRLKRK [AAP-12, seven N-terminal amino acids of OSK-1 deleted]	–	considerably less active than OSK-1	considerably less active than OSK-1
LIFLHRLKRLRKRL [AAP-6]	–	no considerable reduction in the activity was observed	no considerable reduction in the activity was observed
LKLIFLHRLKRMRKRLdKRK (LKLIFLHRLKRMRKRLKRK; not fully specified (residues 16, 17)) [SR-08, reference compound]	–	OSK-1 was more highly active for inducing CD54 expression than SR-07 and SR-08	–
MLKLIFLHRLKRMRKRLdKRK (MLKLIFLHRLKRMRKRLKRK; not fully specified (residues 17, 18)) [SR-07, reference compound]	–	OSK-1 was more highly active for inducing CD54 expression than SR-07 and SR-08	–
